According to the NIST ThermoML archive (doi:10.1016/j.fluid.2017.12.010):

Assay: xn = mol fraction of the nth substance listed
Settings: Liquid, Vibrating tube method

CCCCCCCCCCCC [dodecane] + CCCCCCCCCC
Settings | mass density [kg/m3]
342.94 K, 80000 kPa, x2 = 0.2297 | 765
342.94 K, 80000 kPa, x2 = 0.6433 | 758
342.94 K, 100000 kPa, x2 = 0.2297 | 774
342.94 K, 100000 kPa, x2 = 0.6433 | 768
342.95 K, 100 kPa, x2 = 0.7841 | 698
342.95 K, 1000 kPa, x2 = 0.7841 | 699
342.96 K, 5000 kPa, x2 = 0.7841 | 703
342.97 K, 10000 kPa, x2 = 0.7841 | 708
342.97 K, 20000 kPa, x2 = 0.7841 | 717
342.98 K, 30000 kPa, x2 = 0.7841 | 724
342.98 K, 40000 kPa, x2 = 0.7841 | 732
342.99 K, 60000 kPa, x2 = 0.7841 | 744
343 K, 80000 kPa, x2 = 0.7841 | 756
343 K, 99990 kPa, x2 = 0.7841 | 766
352.58 K, 100 kPa, x2 = 0 | 707
352.58 K, 1000 kPa, x2 = 0 | 708
352.58 K, 5000 kPa, x2 = 0 | 712
352.58 K, 10000 kPa, x2 = 0 | 716
352.58 K, 20000 kPa, x2 = 0 | 725
352.58 K, 30000 kPa, x2 = 0 | 733
352.58 K, 40000 kPa, x2 = 0 | 740
352.58 K, 50000 kPa, x2 = 0 | 747
352.58 K, 60000 kPa, x2 = 0 | 753
352.58 K, 70000 kPa, x2 = 0 | 759
352.58 K, 80000 kPa, x2 = 0 | 764
352.58 K, 90000 kPa, x2 = 0 | 769
352.58 K, 100000 kPa, x2 = 0 | 774
352.73 K, 100 kPa, x2 = 0.2297 | 702
352.74 K, 1000 kPa, x2 = 0.2297 | 703
352.74 K, 5000 kPa, x2 = 0.2297 | 707
352.75 K, 10000 kPa, x2 = 0.2297 | 712
352.75 K, 20000 kPa, x2 = 0.2297 | 721
352.75 K, 30000 kPa, x2 = 0.2297 | 729
352.75 K, 40000 kPa, x2 = 0.2297 | 736
352.76 K, 60000 kPa, x2 = 0.2297 | 749
352.76 K, 80000 kPa, x2 = 0.2297 | 760
352.76 K, 100000 kPa, x2 = 0.2297 | 770
352.78 K, 100 kPa, x2 = 0.6433 | 694
352.78 K, 1000 kPa, x2 = 0.6433 | 695
352.78 K, 5000 kPa, x2 = 0.6433 | 699
352.78 K, 10000 kPa, x2 = 0.6433 | 704
352.78 K, 20000 kPa, x2 = 0.6433 | 713
352.78 K, 30000 kPa, x2 = 0.6433 | 721
352.78 K, 40000 kPa, x2 = 0.6433 | 729
352.79 K, 5000 kPa, x2 = 0.4436 | 703
352.79 K, 60000 kPa, x2 = 0.6433 | 742
352.79 K, 79990 kPa, x2 = 0.6433 | 754
352.79 K, 100000 kPa, x2 = 0.6433 | 764
352.8 K, 1000 kPa, x2 = 0.4436 | 699
352.8 K, 10000 kPa, x2 = 0.4436 | 708
352.8 K, 20000 kPa, x2 = 0.4436 | 717
352.81 K, 100 kPa, x2 = 0.4436 | 698
352.81 K, 1000 kPa, x2 = 0.7841 | 692
352.81 K, 30000 kPa, x2 = 0.4436 | 725
352.81 K, 40000 kPa, x2 = 0.4436 | 733
352.81 K, 60000 kPa, x2 = 0.4436 | 746
352.81 K, 99990 kPa, x2 = 0.4436 | 767
352.82 K, 100 kPa, x2 = 0.7841 | 691
352.82 K, 80000 kPa, x2 = 0.4436 | 757
352.83 K, 5000 kPa, x2 = 0.7841 | 696
352.84 K, 10000 kPa, x2 = 0.7841 | 701
352.84 K, 20000 kPa, x2 = 0.7841 | 711
352.85 K, 30000 kPa, x2 = 0.7841 | 719
352.85 K, 40000 kPa, x2 = 0.7841 | 726
352.85 K, 60000 kPa, x2 = 0.7841 | 740
352.85 K, 80000 kPa, x2 = 0.7841 | 751
352.85 K, 100000 kPa, x2 = 0.7841 | 762
362.48 K, 5000 kPa, x2 = 0 | 704
362.48 K, 10000 kPa, x2 = 0 | 709
362.48 K, 20000 kPa, x2 = 0 | 718
362.48 K, 30000 kPa, x2 = 0 | 726
362.48 K, 50000 kPa, x2 = 0 | 741
362.48 K, 80000 kPa, x2 = 0 | 759
362.48 K, 90000 kPa, x2 = 0 | 764
362.49 K, 100 kPa, x2 = 0 | 699
362.49 K, 1000 kPa, x2 = 0 | 700
362.49 K, 40000 kPa, x2 = 0 | 734
362.49 K, 60000 kPa, x2 = 0 | 747
362.49 K, 70000 kPa, x2 = 0 | 753
362.49 K, 100000 kPa, x2 = 0 | 769
362.57 K, 100 kPa, x2 = 0.2297 | 695
362.57 K, 1000 kPa, x2 = 0.2297 | 696
362.58 K, 5000 kPa, x2 = 0.2297 | 700
362.58 K, 10000 kPa, x2 = 0.2297 | 705
362.58 K, 20000 kPa, x2 = 0.2297 | 714
362.58 K, 30000 kPa, x2 = 0.2297 | 722
362.59 K, 40000 kPa, x2 = 0.2297 | 730
362.59 K, 60000 kPa, x2 = 0.2297 | 743
362.59 K, 80000 kPa, x2 = 0.2297 | 755
362.59 K, 100000 kPa, x2 = 0.2297 | 765
362.61 K, 100 kPa, x2 = 0.4436 | 690
362.61 K, 1000 kPa, x2 = 0.4436 | 691
362.62 K, 100 kPa, x2 = 0.6433 | 686
362.62 K, 1000 kPa, x2 = 0.6433 | 687
362.62 K, 5000 kPa, x2 = 0.4436 | 696
362.62 K, 5000 kPa, x2 = 0.6433 | 691
362.62 K, 10000 kPa, x2 = 0.4436 | 701
362.62 K, 10000 kPa, x2 = 0.6433 | 697
362.62 K, 20000 kPa, x2 = 0.4436 | 710
362.62 K, 30000 kPa, x2 = 0.4436 | 719
362.62 K, 40000 kPa, x2 = 0.4436 | 726
362.62 K, 60000 kPa, x2 = 0.4436 | 740
362.62 K, 80000 kPa, x2 = 0.4436 | 752
362.63 K, 20000 kPa, x2 = 0.6433 | 706
362.63 K, 30000 kPa, x2 = 0.6433 | 715
362.63 K, 40000 kPa, x2 = 0.6433 | 722
362.63 K, 60000 kPa, x2 = 0.6433 | 736
362.63 K, 80000 kPa, x2 = 0.6433 | 748
362.63 K, 99990 kPa, x2 = 0.6433 | 758
362.63 K, 100000 kPa, x2 = 0.4436 | 762
362.64 K, 100 kPa, x2 = 0.7841 | 682
362.64 K, 1000 kPa, x2 = 0.7841 | 683
362.65 K, 5000 kPa, x2 = 0.7841 | 688
362.65 K, 10000 kPa, x2 = 0.7841 | 693
362.66 K, 20000 kPa, x2 = 0.7841 | 703
362.66 K, 30000 kPa, x2 = 0.7841 | 712
362.66 K, 40000 kPa, x2 = 0.7841 | 719
362.66 K, 60000 kPa, x2 = 0.7841 | 733
362.66 K, 80000 kPa, x2 = 0.7841 | 745
362.66 K, 100010 kPa, x2 = 0.7841 | 756
